Results: ChEMBL document CHEMBL3879901, “Substituted isoquinolin-1(2H)-ones, and methods of use thereof” (2012)
pEC50, pIC50: −log10 of the molar value.

Experiments:
[1] = molecular target: PI3K p110 beta/p85 alpha (Homo sapiens, UniProt P42338); experiment: Inhibition of N-terminal His6-tagged recombinant full-length human p110beta/untagged recombinant full length p85alpha expressed in baculovirus infected Sf21 cells using phosphatidylinositol as substrate in presence of gamma-32P-ATP after 5 mins by thin layer chromatographic method
Sequence of PI3K p110 beta/p85 alpha (P27986 whole entry): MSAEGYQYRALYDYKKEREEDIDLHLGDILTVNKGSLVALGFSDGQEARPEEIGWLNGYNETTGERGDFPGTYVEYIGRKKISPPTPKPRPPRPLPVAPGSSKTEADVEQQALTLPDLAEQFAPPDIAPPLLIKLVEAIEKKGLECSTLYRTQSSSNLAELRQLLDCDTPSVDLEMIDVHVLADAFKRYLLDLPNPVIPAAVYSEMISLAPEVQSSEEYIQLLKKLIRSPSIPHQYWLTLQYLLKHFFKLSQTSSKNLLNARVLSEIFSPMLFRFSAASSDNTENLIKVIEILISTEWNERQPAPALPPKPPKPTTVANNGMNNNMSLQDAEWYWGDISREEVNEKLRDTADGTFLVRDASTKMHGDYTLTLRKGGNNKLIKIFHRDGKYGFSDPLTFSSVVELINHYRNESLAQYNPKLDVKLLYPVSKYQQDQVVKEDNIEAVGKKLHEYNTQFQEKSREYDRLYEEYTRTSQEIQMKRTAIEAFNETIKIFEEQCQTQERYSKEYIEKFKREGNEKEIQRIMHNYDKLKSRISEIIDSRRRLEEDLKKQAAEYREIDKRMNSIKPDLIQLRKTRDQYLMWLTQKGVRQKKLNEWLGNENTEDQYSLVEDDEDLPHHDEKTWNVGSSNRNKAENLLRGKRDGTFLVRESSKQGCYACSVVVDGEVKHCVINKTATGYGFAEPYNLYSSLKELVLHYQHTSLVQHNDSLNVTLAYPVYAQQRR
Sequence of PI3K p110 beta/p85 alpha (P42338 whole entry): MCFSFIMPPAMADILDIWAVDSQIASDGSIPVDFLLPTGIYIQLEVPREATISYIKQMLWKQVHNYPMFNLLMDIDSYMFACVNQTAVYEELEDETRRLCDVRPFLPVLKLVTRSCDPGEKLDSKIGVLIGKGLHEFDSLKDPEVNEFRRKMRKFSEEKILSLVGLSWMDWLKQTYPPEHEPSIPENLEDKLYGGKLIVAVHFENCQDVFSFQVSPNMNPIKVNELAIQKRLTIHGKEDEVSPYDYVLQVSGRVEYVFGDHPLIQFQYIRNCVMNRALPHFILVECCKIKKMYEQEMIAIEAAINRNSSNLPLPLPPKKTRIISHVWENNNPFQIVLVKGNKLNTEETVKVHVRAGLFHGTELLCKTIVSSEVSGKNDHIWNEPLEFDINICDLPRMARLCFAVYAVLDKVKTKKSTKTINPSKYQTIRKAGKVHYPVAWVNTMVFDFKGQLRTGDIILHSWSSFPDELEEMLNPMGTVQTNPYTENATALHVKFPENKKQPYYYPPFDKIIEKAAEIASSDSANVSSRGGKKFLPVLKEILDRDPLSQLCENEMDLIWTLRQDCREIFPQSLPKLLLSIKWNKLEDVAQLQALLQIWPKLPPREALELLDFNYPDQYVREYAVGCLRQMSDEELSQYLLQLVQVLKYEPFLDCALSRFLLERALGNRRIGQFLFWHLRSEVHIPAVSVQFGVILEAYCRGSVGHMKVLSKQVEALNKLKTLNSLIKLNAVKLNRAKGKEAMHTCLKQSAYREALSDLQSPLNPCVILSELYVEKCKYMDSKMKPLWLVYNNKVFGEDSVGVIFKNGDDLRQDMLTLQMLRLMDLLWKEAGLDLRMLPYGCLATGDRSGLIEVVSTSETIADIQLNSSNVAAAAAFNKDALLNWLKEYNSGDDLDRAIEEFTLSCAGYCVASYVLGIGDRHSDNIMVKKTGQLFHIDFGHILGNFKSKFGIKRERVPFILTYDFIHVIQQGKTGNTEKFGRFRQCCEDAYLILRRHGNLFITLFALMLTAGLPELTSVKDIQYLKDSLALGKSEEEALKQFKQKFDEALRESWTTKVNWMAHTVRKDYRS

[2] = molecular target: PI3-kinase p110-delta/p85-alpha (Homo sapiens, UniProt O00329); experiment: Inhibition of N-terminal His6-tagged recombinant full-length human p110delta/untagged recombinant full length p85alpha expressed in baculovirus infected Sf21 cells using phosphatidylinositol as substrate in presence of gamma-32P-ATP after 5 mins by thin layer chromatographic method
Sequence of PI3-kinase p110-delta/p85-alpha (P27986 whole entry): as the sequence (P27986 whole entry) above
Sequence of PI3-kinase p110-delta/p85-alpha (O00329 whole entry): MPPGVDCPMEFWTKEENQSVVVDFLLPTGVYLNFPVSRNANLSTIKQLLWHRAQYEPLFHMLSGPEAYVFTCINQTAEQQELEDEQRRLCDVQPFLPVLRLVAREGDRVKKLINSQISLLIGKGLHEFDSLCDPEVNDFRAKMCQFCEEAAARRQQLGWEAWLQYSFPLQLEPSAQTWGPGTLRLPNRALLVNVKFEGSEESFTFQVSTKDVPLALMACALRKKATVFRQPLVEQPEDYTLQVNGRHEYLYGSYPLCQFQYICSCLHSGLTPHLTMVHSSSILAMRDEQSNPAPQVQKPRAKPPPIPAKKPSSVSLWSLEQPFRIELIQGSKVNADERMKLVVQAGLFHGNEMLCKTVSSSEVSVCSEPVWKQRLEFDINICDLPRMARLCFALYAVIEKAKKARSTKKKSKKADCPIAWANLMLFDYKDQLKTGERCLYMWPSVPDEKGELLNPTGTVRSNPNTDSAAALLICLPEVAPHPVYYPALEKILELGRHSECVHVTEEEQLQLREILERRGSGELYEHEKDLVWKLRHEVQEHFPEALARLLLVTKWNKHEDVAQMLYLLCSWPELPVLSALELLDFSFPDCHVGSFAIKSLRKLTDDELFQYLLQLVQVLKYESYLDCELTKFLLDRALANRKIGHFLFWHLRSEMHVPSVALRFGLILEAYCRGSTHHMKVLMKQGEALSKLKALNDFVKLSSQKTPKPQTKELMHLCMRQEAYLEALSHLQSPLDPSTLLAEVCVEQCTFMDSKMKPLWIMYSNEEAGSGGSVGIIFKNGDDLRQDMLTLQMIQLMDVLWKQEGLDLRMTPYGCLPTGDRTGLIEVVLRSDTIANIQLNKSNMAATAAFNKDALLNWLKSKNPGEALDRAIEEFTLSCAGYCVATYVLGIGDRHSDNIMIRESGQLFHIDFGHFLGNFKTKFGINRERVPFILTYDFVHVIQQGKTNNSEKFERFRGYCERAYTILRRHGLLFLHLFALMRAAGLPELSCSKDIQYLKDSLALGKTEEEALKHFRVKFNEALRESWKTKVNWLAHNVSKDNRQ

[3] = Antiproliferative activity against Balb/c mouse splenic B cells preincubated for 30 mins followed by LPS or F(ab')2 donkey anti-mouse IgM and recombinant mouse IL4 stimulation measured after 72 hrs by Alamar Blue reduction assay; assay type: functional, cell-based
[4] = molecular target: PI3-kinase p110-alpha/p85-alpha (Homo sapiens, UniProt P42336); experiment: Inhibition of N-terminal His6-tagged recombinant full-length human p110alpha/untagged recombinant full length human p85alpha expressed in baculovirus infected Sf21 cells using phosphatidylinositol as substrate in presence of gamma-32P-ATP after 5 mins by thin layer chromatographic method
Sequence of PI3-kinase p110-alpha/p85-alpha (P27986 whole entry): as the sequence (P27986 whole entry) above
Sequence of PI3-kinase p110-alpha/p85-alpha (P42336 whole entry): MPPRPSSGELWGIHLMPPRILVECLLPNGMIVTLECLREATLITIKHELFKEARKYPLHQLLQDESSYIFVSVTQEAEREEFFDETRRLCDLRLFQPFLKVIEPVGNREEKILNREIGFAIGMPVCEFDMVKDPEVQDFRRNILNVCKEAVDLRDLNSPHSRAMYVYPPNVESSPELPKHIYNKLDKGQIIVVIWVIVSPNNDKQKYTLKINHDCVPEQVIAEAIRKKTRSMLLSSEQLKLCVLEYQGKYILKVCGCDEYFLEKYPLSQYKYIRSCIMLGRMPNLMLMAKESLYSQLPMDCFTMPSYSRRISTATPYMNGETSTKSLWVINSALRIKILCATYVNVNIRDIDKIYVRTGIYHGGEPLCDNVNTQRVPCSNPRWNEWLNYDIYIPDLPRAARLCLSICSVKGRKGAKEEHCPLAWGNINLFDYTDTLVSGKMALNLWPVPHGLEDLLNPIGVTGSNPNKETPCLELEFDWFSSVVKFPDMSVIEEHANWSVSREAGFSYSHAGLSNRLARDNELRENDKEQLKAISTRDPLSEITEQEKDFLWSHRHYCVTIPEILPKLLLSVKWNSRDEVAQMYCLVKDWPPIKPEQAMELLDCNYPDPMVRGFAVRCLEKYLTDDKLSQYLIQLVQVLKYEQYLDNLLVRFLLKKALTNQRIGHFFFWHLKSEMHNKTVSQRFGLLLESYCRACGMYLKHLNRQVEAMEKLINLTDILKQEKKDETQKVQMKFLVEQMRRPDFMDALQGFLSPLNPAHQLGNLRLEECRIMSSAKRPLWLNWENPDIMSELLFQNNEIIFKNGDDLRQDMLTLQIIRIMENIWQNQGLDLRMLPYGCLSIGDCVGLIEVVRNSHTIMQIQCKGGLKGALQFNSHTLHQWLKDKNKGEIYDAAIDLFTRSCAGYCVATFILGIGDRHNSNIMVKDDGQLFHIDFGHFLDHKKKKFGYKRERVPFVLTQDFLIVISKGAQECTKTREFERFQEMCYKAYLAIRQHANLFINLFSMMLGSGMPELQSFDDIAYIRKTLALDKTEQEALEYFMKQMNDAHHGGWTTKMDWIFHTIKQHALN

Cc1cccc2cc([C@H](C)Nc3nc(F)nc4[nH]cnc34)n(C3CC3)c(=O)c12
pIC50 [1]: > 7.00
pIC50 [2]: > 7.00

COc1ccc(-c2nn(Cc3cc4cccc(C)c4c(=O)n3-c3ccccc3C)c3ncnc(N)c23)cc1
pIC50 [2]: > 6.00
pEC50 [3]: > 6.00
pIC50 [4]: < 5.00

Cc1ccccc1-n1c(Cn2nc(I)c3c(N)ncnc32)cc2ccccc2c1=O
pIC50 [2]: > 6.00
pEC50 [3]: > 6.00
pIC50 [4]: < 5.00

Cc1ccccc1-n1c(Cn2nc(-c3cccc(O)c3)c3c(N)ncnc32)cc2cccc(F)c2c1=O
pIC50 [1]: < 5.00
pIC50 [2]: > 7.00
pIC50 [4]: < 5.00

Cc1ccccc1-n1c(Cn2nc(-c3ccc(O)c(F)c3)c3c(N)ncnc32)cc2cccc(C)c2c1=O
pIC50 [2]: > 7.00
pEC50 [3]: > 6.00
pIC50 [4]: < 5.00

Cc1ccccc1-n1c(Cn2nc(-c3ccc(F)c(O)c3)c3c(N)ncnc32)cc2cccc(F)c2c1=O
pIC50 [1]: < 5.00
pIC50 [2]: > 7.00
pIC50 [4]: < 5.00

Cc1cccc2cc(Cn3nc(-c4ccc(Cl)c(O)c4)c4c(N)ncnc43)n(C(C)C)c(=O)c12
pIC50 [2]: > 7.00
pEC50 [3]: > 7.00

Cc1cccc2cc([C@H](C)Nc3ncnc4[nH]cnc34)n(-c3ccc(F)cc3)c(=O)c12
pIC50 [1]: > 7.00

Cc1cccc2cc(C(C)Nc3ncnc4[nH]cnc34)n(C3CCOCC3)c(=O)c12 (stereo unspecified)
pIC50 [2]: > 7.00
pEC50 [3]: > 7.00

CC(C)n1c(Cn2nc(-c3cc(O)cc(F)c3)c3c(N)ncnc32)cc2cccc(Cl)c2c1=O
pIC50 [2]: > 7.00
pEC50 [3]: > 7.00

Cc1cccc2cc(Cn3nc(-c4cccc(O)c4)c4c(N)ncnc43)n(-c3ccccc3C(C)C)c(=O)c12
pIC50 [2]: > 7.00
pEC50 [3]: > 7.00
pIC50 [4]: < 5.00

Cc1cccc2cc(Cn3nc(-c4ccc(F)c(O)c4)c4c(N)ncnc43)n(C3CCCC3)c(=O)c12
pIC50 [1]: < 5.00
pIC50 [2]: > 7.00
pIC50 [4]: < 5.00

CC(C)n1c(Cn2nc(-c3cc(O)cc(F)c3)c3c(N)ncnc32)cc2ccccc2c1=O
pIC50 [2]: > 7.00
pEC50 [3]: > 7.00

CC(C)n1c(Cn2nc(-c3cccc(O)c3)c3c(N)ncnc32)cc2ccccc2c1=O
pIC50 [2]: > 7.00
pEC50 [3]: > 6.00

CC(C)n1c(Cn2nc(-c3cc(O)cc(F)c3)c3c(N)ncnc32)cc2cccc(F)c2c1=O
pIC50 [2]: > 7.00
pEC50 [3]: > 7.00

CCC(Nc1ncnc2[nH]cnc12)c1cc2cccc(C)c2c(=O)n1C(C)C (stereo unspecified)
pIC50 [2]: > 7.00
pEC50 [3]: > 7.00

Cc1ccccc1-n1c(Cn2nc(-c3ccc4cc[nH]c4c3)c3c(N)ncnc32)cc2cccc(C)c2c1=O
pIC50 [2]: > 7.00
pEC50 [3]: > 6.00
pIC50 [4]: < 5.00

Cc1ccccc1-n1c(Cn2nc(-c3cnc4[nH]ccc4c3)c3c(N)ncnc32)cc2cccc(C)c2c1=O
pIC50 [2]: > 7.00
pEC50 [3]: > 7.00
pIC50 [4]: < 5.00

Nc1ncnc2c1c(-c1cc(O)cc(F)c1)nn2Cc1cc2cccc(F)c2c(=O)n1-c1ccccc1F
pIC50 [2]: > 7.00
pEC50 [3]: > 7.00

CCC(Nc1ncnc2[nH]cnc12)c1cc2ccccc2c(=O)n1-c1ccccc1 (stereo unspecified)
pIC50 [2]: > 7.00
pEC50 [3]: > 7.00

Cc1cccnc1-n1c(Cn2nc(I)c3c(N)ncnc32)cc2cccc(C)c2c1=O
pEC50 [3]: > 6.00
pIC50 [4]: < 5.00

CCC(Nc1ncnc2[nH]cnc12)c1cc2cccc(C)c2c(=O)n1-c1ccccc1C (stereo unspecified)
pIC50 [2]: > 7.00
pEC50 [3]: > 7.00

Cc1ccccc1-n1c(Cn2nc(CC#N)c3c(N)ncnc32)cc2cccc(C)c2c1=O
pIC50 [2]: > 7.00
pEC50 [3]: > 6.00

Cc1cccc2cc(Cn3nc(I)c4c(N)ncnc43)n(-c3ccccc3C(C)C)c(=O)c12
pIC50 [1]: > 5.00
pIC50 [2]: > 7.00
pEC50 [3]: > 7.00

Cc1cccc2cc(C(C)Nc3ncnc4[nH]cnc34)n(-c3c(F)cccc3F)c(=O)c12 (stereo unspecified)
pIC50 [2]: > 7.00
pEC50 [3]: > 7.00

Cc1cccc2cc(C(C)Nc3ncnc4[nH]cnc34)n(C3CCC3)c(=O)c12 (stereo unspecified)
pIC50 [2]: > 7.00
pEC50 [3]: > 7.00

Cc1cccc2cc(Cn3nc(C(F)F)c4c(N)ncnc43)n(-c3ccccc3)c(=O)c12
pIC50 [2]: > 7.00
pEC50 [3]: > 7.00

Cc1cccc2cc(Cn3nc(-c4cn[nH]c4)c4c(N)ncnc43)n(-c3ccccc3)c(=O)c12
pIC50 [2]: > 7.00
pEC50 [3]: > 7.00

Cc1cccc2cc(C(C)Nc3ncnc4[nH]cnc34)n(-c3cccc(F)c3)c(=O)c12 (stereo unspecified)
pIC50 [2]: > 7.00
pEC50 [3]: > 7.00

CC(Nc1ncnc2[nH]cnc12)c1cc2ccccc2c(=O)n1-c1ccccc1 (stereo unspecified)
pIC50 [2]: > 7.00
pEC50 [3]: > 7.00

Cc1cccc2cc(C(C)Nc3ncnc4[nH]cnc34)n(C3CCN(C)CC3)c(=O)c12 (stereo unspecified)
pIC50 [2]: > 7.00
pEC50 [3]: > 7.00

Cc1cccc2cc(Cn3nc(-c4cc(O)cc(F)c4)c4c(N)ncnc43)n(C3CCOCC3)c(=O)c12
pIC50 [2]: > 7.00
pEC50 [3]: > 7.00

CCC(Nc1ncnc2[nH]cnc12)c1cc2cccc(C)c2c(=O)n1-c1cc(F)cc(F)c1 (stereo unspecified)
pIC50 [2]: > 7.00
pEC50 [3]: > 7.00

C=Cc1nn(Cc2cc3cccc(C)c3c(=O)n2-c2ccccc2)c2ncnc(N)c12
pIC50 [2]: > 7.00
pEC50 [3]: > 7.00

CC(C)n1c(Cn2nc(-c3cccc(O)c3)c3c(N)ncnc32)cc2cccc(Cl)c2c1=O
pIC50 [2]: > 7.00
pEC50 [3]: > 7.00

Cc1ccccc1-n1c(Cn2nc(-c3cc(O)cc(F)c3)c3c(N)ncnc32)cc2ccccc2c1=O
pIC50 [2]: > 7.00
pEC50 [3]: > 7.00

Cc1cccc2cc(C(C)Nc3nc(N)nc4[nH]cnc34)n(-c3ccccc3)c(=O)c12 (stereo unspecified)
pIC50 [1]: > 7.00

Cc1ccccc1-n1c(Cn2nc(Br)c3c(N)ncnc32)cc2cccc(C)c2c1=O
pIC50 [2]: > 7.00
pEC50 [3]: > 6.00
pIC50 [4]: < 5.00

Cc1cccc2cc(C(C)Nc3ncnc4[nH]cnc34)n(C(C)C)c(=O)c12 (stereo unspecified)
pIC50 [2]: > 7.00
pEC50 [3]: > 7.00

Cc1cccc2cc(C(C)Nc3ncnc4[nH]cnc34)n(CCN3CCOCC3)c(=O)c12 (stereo unspecified)
pIC50 [2]: > 7.00
pEC50 [3]: > 7.00

CCn1c(Cn2nc(-c3cccc(O)c3)c3c(N)ncnc32)cc2cccc(C)c2c1=O
pIC50 [2]: > 7.00
pEC50 [3]: > 7.00

CNC(=O)Nc1nc2ccc(-c3nn(Cc4cc5cccc(C)c5c(=O)n4-c4ccccc4C)c4ncnc(N)c34)cc2s1
pIC50 [2]: > 7.00
pEC50 [3]: > 7.00
pIC50 [4]: > 4.00

Cc1cccc2cc(C(C)Nc3ncnc4[nH]cnc34)n(-c3cc(F)cc(F)c3)c(=O)c12 (stereo unspecified)
pIC50 [2]: > 7.00
pEC50 [3]: > 7.00

CCc1nn(Cc2cc3cccc(C)c3c(=O)n2-c2ccccc2)c2ncnc(N)c12
pIC50 [2]: > 7.00
pEC50 [3]: > 7.00

Nc1ncnc2c1c(-c1cccc(O)c1)nn2Cc1cc2cccc(Cl)c2c(=O)n1C1CC1
pIC50 [2]: > 7.00
pEC50 [3]: > 7.00

CCc1nn(Cc2cc3cccc(C)c3c(=O)n2-c2ccccc2C)c2ncnc(N)c12
pIC50 [2]: > 7.00
pEC50 [3]: > 6.00

Cc1cccc2cc(C(C)Nc3ncnc4[nH]cnc34)n(-c3ccccc3F)c(=O)c12 (stereo unspecified)
pIC50 [1]: > 5.00
pIC50 [2]: > 7.00
pEC50 [3]: > 7.00

CCc1ccccc1-n1c(Cn2nc(I)c3c(N)ncnc32)cc2cccc(C)c2c1=O
pIC50 [1]: > 5.00
pIC50 [2]: > 7.00
pEC50 [3]: > 6.00

Cc1ccccc1-n1c(Cn2nc(C#C[C@@H](C)O)c3c(N)ncnc32)cc2ccccc2c1=O
pIC50 [2]: > 6.00
pEC50 [3]: > 6.00
pIC50 [4]: < 5.00

Cc1cccc2cc(Cn3nc(-c4cccc(Cl)c4)c4c(N)ncnc43)n(-c3ccccc3F)c(=O)c12
pIC50 [1]: < 5.00
pIC50 [2]: > 5.00
pEC50 [3]: < 5.00

CCC(Nc1ncnc2[nH]cnc12)c1cc2cccc(C)c2c(=O)n1C1CCC1 (stereo unspecified)
pIC50 [2]: > 7.00
pEC50 [3]: > 6.00

Cc1cccc2cc(Cn3nc(-c4cccc(O)c4)c4c(N)ncnc43)n(C)c(=O)c12
pIC50 [2]: > 7.00
pEC50 [3]: > 6.00

Cc1cccc2cc([C@H](C)Nc3nc(Cl)nc4[nH]cnc34)n(C3CC3)c(=O)c12
pIC50 [1]: > 7.00
pIC50 [2]: > 7.00

Cc1cccnc1-n1c(Cn2nc(-c3cc(O)cc(F)c3)c3c(N)ncnc32)cc2cccc(C)c2c1=O
pIC50 [2]: > 7.00
pEC50 [3]: > 7.00
pIC50 [4]: < 5.00

CC(=O)Nc1nc2ccc(-c3nn(Cc4cc5cccc(C)c5c(=O)n4-c4cccc(F)c4)c4ncnc(N)c34)cc2s1
pIC50 [1]: > 5.00
pIC50 [2]: > 7.00
pEC50 [3]: > 7.00
